Assay results as given in patent publication US20220227737A1, “NOVEL OXALYL PIPERAZINES ACTIVE AGAINST THE HEPATITIS B VIRUS (HBV)” (AiCuris GmbH & Co. KG, priority 2019, published 2022).

Experiments:
[1] = Cell viability assay (AlamarBlue); settings: human, HepAD38 cells
HBV = HBV replication assay: HBV DNA from the supernatants of HepAD38 cells; format: cell-based; settings: Hepatitis B virus, 144 h, HBV DNA in supernatant at day 6, read-out: Cell Activity
Protocol: Determination of HBV DNA from the Supernatants of HepAD38 Cells
The anti-HBV activity was analysed in the stable transfected cell line HepAD38, which has been described to secrete high levels of HBV virion particles (Ladner et al., 1997). In brief, HepAD38 cells were cultured at 37° C. at 5% CO2 and 95% humidity in 200 μl maintenance medium, which was Dulbecco's modified Eagle's medium/Nutrient Mixture F-12 (Gibco, Karlsruhe), 10% fetal bovine serum (PAN Biotech Aidenbach) supplemented with 50 μg/ml penicillin/streptomycin (Gibco, Karlsruhe), 2 mM L-glutamine (PAN Biotech, Aidenbach), 400 μg/ml G418 (AppliChem, Darmstadt) and 0.3 μg/ml tetracycline. Cells were subcultured once a week in a 1:5 ratio, but were usually not passaged more than ten times. For the assay 60,000 cells were seeded in maintenance medium without any tetracycline into each well of a 96-well plate and treated with serial half-log dilutions of test compound. To minimize edge effects the outer 36 wells of the plate were not used but were filled with assay medium. On each assay plate six wells for the virus control (untreated HepAD38 cells) and six wells for the cell control (HepAD38 cells treated with 0.3 μg/ml tetracycline) were allocated, respectively. In addition, one plate set with reference inhibitors like BAY 41-4109, entecavir, and lamivudine instead of screening compounds were prepared in each experiment. In general, experiments were performed thrice in triplicates. At day 6 HBV DNA from 100 μl filtrated cell culture supernatant (AcroPrep Advance 96 Filter Plate, […] Supor membran, PALL GmbH, Dreieich) was automatically purified on the MagNa Pure LC instrument using the MagNA Pure 96 DNA and Viral NA Small Volume Kit (Roche Diagnostics, Mannheim) according to the instructions of the manufacturer. EC50 values were calculated from relative copy numbers of HBV DNA In brief, 5 μl of the 100 μl eluate containing HBV DNA were subjected to PCR LC480 Probes Master Kit (Roche) together with 1 μM antisense primer […], 0.5 μM sense primer […], 0.3 μM hybprobes […]-FL and LC640-[…]-PH (TIBMolBiol, Berlin) to a final volume of […]. The PCR was performed on the Light Cycler 480 real time system (Roche Diagnostics, Mannheim) using the following protocol: Pre-incubation for 1 min at 95° C., amplification: 40 cycles×(10 sec at 95° C., 50 sec at 60° C., 1 sec at 70° C.), cooling for 10 sec at 40° C. Viral load was quantitated against known standards using HBV plasmid DNA of pCH-9/3091 (Nassal et al., 1990, Cell 63: 1357-1363) and the LightCycler 480 SW 1.5 software (Roche Diagnostics, Mannheim) and EC50 values were calculated using non-linear regression with GraphPad Prism 6 (GraphPad Software Inc., La Jolla, USA).

[2] = biological target: T1, C-terminal truncated core protein (HBV core dimer, BODIPY-FL labelled) (UniProt P03146); assay: Biochemical capsid assembly assay (fluorescence quenching)
T1 construct: fused on or other part: One added cysteine at position 150, labelled with BODIPY-FL maleimide; The C-terminal arginine-rich domain is absent
T1 sequence (P03146 whole entry, the tested form may be a part): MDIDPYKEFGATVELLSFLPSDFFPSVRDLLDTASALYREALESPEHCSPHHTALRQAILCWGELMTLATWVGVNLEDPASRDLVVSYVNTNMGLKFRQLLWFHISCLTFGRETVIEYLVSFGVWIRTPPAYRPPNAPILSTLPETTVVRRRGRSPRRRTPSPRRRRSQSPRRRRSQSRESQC
How it was run: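 E. coli-expressed HBV core 1–149 plus Cys150 dimer, BODIPY-FL-labelled, at 1.0–2.0 μM in 50 mM HEPES pH 7.5, 0.5% DMSO. 8-point compound series; assembly started with NaCl, fluorescence quenching (ex 477/em 525 nm) read after 6 min. EC50 by non-linear regression versus 2.5 M and 0 M NaCl controls.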

Compound: O=C(NC1CCOC1)C(=O)N1CCN(C(=O)c2cc3ccccc3[nH]2)CC1 (stereo not drawn) [Example 35, 2-(4-(1H-indole-2-carbonyl)piperazin-1-yl)-2-oxo-N-(tetrahydrofuran-3-yl)acetamide]
- CC50 at 6 days [1]: > 100 µM
- EC50 (HBV): < 1 µM
- IC50 [2]: 5 to 10 µM

Compound: O=C(NC1CCCC1)C(=O)N1CCN(C(=O)c2cc3cccc(Br)c3[nH]2)CC1 [Example 7, 2-[4-(7-bromo-1H-indole-2-carbonyl)piperazin-1-yl]-N-cyclopentyl-2-oxoacetamide]
- CC50 at 6 days [1]: > 100 µM
- EC50 (HBV): < 1 µM
- IC50 [2]: 5 to 10 µM

Compound: CC(C)(O)CNC(=O)C(=O)N1CCN(C(=O)c2cc3ccccc3[nH]2)CC1 [Example 32, 2-(4-(1H-indole-2-carbonyl)piperazin-1-yl)-N-(2-hydroxy-2-methylpropyl)-2-oxoacetamide]
- CC50 at 6 days [1]: > 100 µM
- EC50 (HBV): < 1 µM
- IC50 [2]: < 5 µM
